Measurements from ChEMBL document CHEMBL4257522, “Synthesis and preliminary anti-inflammatory and anti-bacterial evaluation of some diflunisal aza-analogs” (Medchemcomm, 2018).
Active and inactive are the calls of the source. No cut-off for these calls is given here.

Key:
Enterococcus faecium [1] = assay: Potentiation of erythromycin-induced antibacterial activity against Enterococcus faecium ATCC 700221 assessed as minimum modulatory concentration up to 32 uM measured after 16 hrs in presence of MIC/4 erythromycin; assay type: functional; details: ATCC 700221, 16 h, read-out: MEC
Staphylococcus aureus [2] = assay: Potentiation of ciprofloxacin-induced antibacterial activity against Staphylococcus aureus ATCC 33592 assessed as minimum modulatory concentration up to 32 uM measured after 16 hrs in presence of MIC/4 ciprofloxacin; assay type: functional; details: ATCC 33592, 16 h, read-out: MEC
Macrophage cell line [3] = assay: Antiinflammatory activity in human PBMC-differentiated macrophages assessed as lowest concentration required to show at least 25% inhibition of LPS-induced IL-8 production measured after 24 hrs by ELISA; assay type: functional
Enterococcus faecium [4] = assay: Potentiation of tetracycline-induced antibacterial activity against Enterococcus faecium ATCC 700221 assessed as minimum modulatory concentration up to 32 uM measured after 16 hrs in presence of MIC/4 tetracycline; assay type: functional; details: ATCC 700221, 16 h, read-out: MEC
Macrophage cell line [5] = assay: Cytotoxicity against human PBMC-differentiated macrophages treated for 24 hrs followed by compound washout and measured after 48 hrs by MTT assay; assay type: cell-based
Streptococcus pyogenes [6] = assay: Potentiation of geneticin-induced antibacterial activity against Streptococcus pyogenes ATCC 14289 assessed as minimum modulatory concentration up to 32 uM measured after 16 hrs in presence of MIC/4 geneticin; assay type: functional; details: ATCC 14289, 16 h, read-out: MEC
Macrophage cell line [7] = assay: Antiinflammatory activity in human PBMC-differentiated macrophages assessed as lowest concentration required to show at least 25% inhibition of LPS-induced IL-1beta production measured after 24 hrs by ELISA; assay type: functional
Pseudomonas aeruginosa = assay: Potentiation of tetracycline-induced antibacterial activity against Pseudomonas aeruginosa ATCC BAA-2108 assessed as minimum modulatory concentration up to 32 uM measured after 16 hrs in presence of MIC/4 tetracycline; assay type: functional; details: ATCC BAA-2108, 16 h, read-out: MEC
Streptococcus pyogenes [8] = assay: Toxicity in Streptococcus pyogenes ATCC 14289 up to 32 uM measured after 16 hrs; assay type: organism-based
Staphylococcus aureus [9] = assay: Toxicity in Staphylococcus aureus ATCC 33592 up to 32 uM measured after 16 hrs; assay type: organism-based
Macrophage cell line [10] = assay: Antiinflammatory activity in human PBMC-differentiated macrophages assessed as lowest concentration required to show at least 25% inhibition of LPS-induced TNFalpha production measured after 24 hrs by ELISA; assay type: functional
Staphylococcus aureus [11] = assay: Potentiation of tetracycline-induced antibacterial activity against Staphylococcus aureus ATCC 33592 assessed as minimum modulatory concentration up to 32 uM measured after 16 hrs in presence of MIC/4 tetracycline; assay type: functional; details: ATCC 33592, 16 h, read-out: MEC
Macrophage cell line [12] = assay: Antiinflammatory activity in human PBMC-differentiated macrophages assessed as lowest concentration required to show at least 25% inhibition of LPS-induced prostaglandin production measured after 24 hrs by ELISA; assay type: functional
Macrophage cell line [13] = assay: Antiinflammatory activity in human PBMC-differentiated macrophages assessed as inhibition of LPS-induced IL-1beta production at 0.01 to 10 uM measured after 24 hrs by ELISA; assay type: functional, cell-based
Macrophage cell line [14] = assay: Antiinflammatory activity in human PBMC-differentiated macrophages assessed as inhibition of LPS-induced TNFalpha production at 0.01 to 10 uM measured after 24 hrs by ELISA; assay type: functional, cell-based
Macrophage cell line [15] = assay: Antiinflammatory activity in human PBMC-differentiated macrophages assessed as inhibition of LPS-induced IL-8 production at 0.01 to 10 uM measured after 24 hrs by ELISA; assay type: functional, cell-based

Compound	minimal effective concentration (Enterococcus faecium [1])	minimal effective concentration (Staphylococcus aureus [2])	Activity (Macrophage cell line [3])	minimal effective concentration (Enterococcus faecium [4])	IC50 (Macrophage cell line [5])	minimal effective concentration (Streptococcus pyogenes [6])	Activity (Macrophage cell line [7])	minimal effective concentration (Pseudomonas aeruginosa)	Activity (Streptococcus pyogenes [8])	Activity (Staphylococcus aureus [9])	Activity (Macrophage cell line [10])	minimal effective concentration (Staphylococcus aureus [11])	Activity (Macrophage cell line [12])	inhibition (Macrophage cell line [13])	inhibition (Macrophage cell line [14])	inhibition (Macrophage cell line [15])
O=C(O)c1cc(-c2ccc(F)cc2F)ncc1O	4 µM	16 µM	1 µM	4 µM	97.3 µM	8 µM	1 µM	> 32 µM	Non-Toxic	Non-Toxic	1 µM	2 µM	10 µM			
O=C(O)c1cc(-c2ccccc2)ncc1O	> 32 µM	16 µM		> 32 µM	84.5 µM	16 µM		> 32 µM	Non-Toxic	Non-Toxic		> 32 µM		inactive	inactive	inactive
O=C(O)c1cc(O)c(-c2ccccc2)nc1-c1ccccc1	2 µM	16 µM	10 µM	2 µM	92.1 µM	2 µM	10 µM	> 32 µM	Non-Toxic	Non-Toxic	10 µM	8 µM				
Cc1cc(C(=O)O)c(O)c(Cc2ccccc2)n1	> 32 µM	> 32 µM		> 32 µM	> 100 µM	> 32 µM		> 32 µM	Non-Toxic	Non-Toxic		> 32 µM		inactive	inactive	inactive
O=C(O)c1ccnc(Cc2ccccc2)c1O	> 32 µM	> 32 µM		> 32 µM	> 100 µM	> 32 µM		> 32 µM	Non-Toxic	Non-Toxic		> 32 µM		inactive	inactive	inactive
C[n+]1cc(O)c(C(=O)[O-])cc1-c1ccccc1	> 32 µM	> 32 µM		> 32 µM	91.4 µM	> 32 µM		> 32 µM	Non-Toxic	Non-Toxic		> 32 µM		inactive	inactive	inactive
C[n+]1ccc(C(=O)[O-])c(O)c1Cc1ccccc1	> 32 µM	> 32 µM		> 32 µM	> 100 µM	> 32 µM		> 32 µM	Non-Toxic	Non-Toxic		> 32 µM		inactive	inactive	inactive
Cc1nc(-c2ccccc2)c(O)cc1C(=O)O	4 µM	16 µM		1 µM	97.4 µM	2 µM	10 µM	> 32 µM	Non-Toxic	Non-Toxic	10 µM	4 µM				inactive
O=C(O)c1cc(O)cnc1-c1ccccc1	2 µM	> 32 µM	10 µM	4 µM	87.9 µM	2 µM	10 µM	> 32 µM	Non-Toxic	Non-Toxic	10 µM	1 µM				
COc1cccc(-c2cc(C(=O)O)c(O)cn2)c1	> 32 µM	> 32 µM		> 32 µM	88.6 µM	> 32 µM		> 32 µM	Non-Toxic	Non-Toxic		> 32 µM		inactive	inactive	inactive
Cc1nc(-c2ccccc2)cc(C(=O)O)c1O	> 32 µM	> 32 µM		> 32 µM	90.8 µM	> 32 µM		> 32 µM	Non-Toxic	Non-Toxic		16 µM		inactive	inactive	inactive
O=C(O)c1cnc(-c2ccccc2)c(O)c1	4 µM	> 32 µM		1 µM	> 100 µM	8 µM		> 32 µM	Non-Toxic	Non-Toxic		0.25 µM		inactive	inactive	inactive
O=C(O)c1cnc2c(F)cc(F)cc2c1O	4 µM	16 µM	10 µM	4 µM	96.5 µM	4 µM	1 µM	> 32 µM	Non-Toxic	Non-Toxic	1 µM	2 µM	10 µM			
O=C(O)c1cc(-c2ccc(F)cc2F)ccc1O [DIFLUNISAL]	> 32 µM	> 32 µM		> 32 µM	53 µM	> 32 µM		> 32 µM	Non-Toxic	Non-Toxic		> 32 µM	0.1 µM	inactive	inactive	inactive
O=C(O)c1cc(-c2ccccc2)nc(-c2ccccc2)c1O	2 µM	16 µM		2 µM	81.2 µM	4 µM	10 µM	> 32 µM	Non-Toxic	Non-Toxic	10 µM	2 µM	10 µM			inactive
COc1cccc(-c2cc(C(=O)[O-])c(O)c[n+]2C)c1	> 32 µM	> 32 µM		> 32 µM	96 µM	> 32 µM		> 32 µM	Non-Toxic	Non-Toxic		> 32 µM		inactive	inactive	inactive
O=C(O)c1ccnc(-c2ccccc2)c1O	4 µM	16 µM	10 µM	2 µM	> 100 µM	2 µM	10 µM	> 32 µM	Non-Toxic	Non-Toxic	10 µM	2 µM				
